# Experimental data: ChEMBL document CHEMBL1177800, “Inhibition of ABCG2-mediated drug efflux by naphthopyrones from marine crinoids” (Bioorg Med Chem Lett, 2010); call rule not given here
# Tests used:
# [1] = target: T1, Broad substrate specificity ATP-binding cassette transporter ABCG2 (Homo sapiens, UniProt Q9UNQ0); test: Inhibition of ABCG2 expressed in human NCI-H460 cells assessed as inhibition of PhA accumulation relative to fumitremorgin C; type: cell-based
# T1 sequence (Q9UNQ0 whole entry): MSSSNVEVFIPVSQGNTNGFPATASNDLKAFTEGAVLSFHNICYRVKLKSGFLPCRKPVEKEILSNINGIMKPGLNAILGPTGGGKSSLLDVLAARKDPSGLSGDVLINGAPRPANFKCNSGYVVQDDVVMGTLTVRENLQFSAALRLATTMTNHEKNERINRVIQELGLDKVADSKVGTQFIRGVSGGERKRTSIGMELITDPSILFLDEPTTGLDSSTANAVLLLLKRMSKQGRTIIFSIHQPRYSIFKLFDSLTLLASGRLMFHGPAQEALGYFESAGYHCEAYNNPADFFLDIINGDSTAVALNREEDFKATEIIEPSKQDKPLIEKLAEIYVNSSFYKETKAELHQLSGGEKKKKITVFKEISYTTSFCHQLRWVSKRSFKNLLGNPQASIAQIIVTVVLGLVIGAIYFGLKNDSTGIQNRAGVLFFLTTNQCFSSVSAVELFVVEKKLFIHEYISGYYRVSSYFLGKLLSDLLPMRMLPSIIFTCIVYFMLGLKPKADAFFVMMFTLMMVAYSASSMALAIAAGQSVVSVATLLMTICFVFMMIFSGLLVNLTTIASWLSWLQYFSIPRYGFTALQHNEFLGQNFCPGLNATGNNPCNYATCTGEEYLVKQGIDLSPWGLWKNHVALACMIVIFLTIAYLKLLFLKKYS
# [2] = target: T1, Broad substrate specificity ATP-binding cassette transporter ABCG2; test: Inhibition of ABCG2-mediated drug efflux expressed in human NCI-H460 cells; type: cell-based
structure (smiles),measurement,setting,value
COc1cc(O)c2c(O)c3c(=O)cc(C)oc3c(OC)c2c1,inhibition (INH),[1],Not Active
same,IC50,[2]; nci-h460,Not Active
CCCc1cc(=O)c2c(O)c3c(O)cc(OC)cc3c(OC)c2o1,inhibition (INH),[1],Not Active
same,IC50,[2]; nci-h460,Not Active
COc1c(O)c2c(=O)cc(C)oc2c2c(OC)cc(O)cc12,inhibition (INH),[1],59.3%
same,IC50,[2]; read-out: IC50,11.9 µM
COc1c(OC)c2c(=O)cc(C)oc2c2c(OC)cc(O)cc12,inhibition (INH),[1],Not Active
same,IC50,[2]; nci-h460,Not Active
CCCc1cc(=O)c2c(OC)cc3cc(O)cc(OC)c3c2o1,inhibition (INH),[1],46.3%
same,IC50,[2]; read-out: IC50,5.9 µM
CCCc1cc(=O)c2c(O)c3c(OC)cc(O)cc3cc2o1,inhibition (INH),[1],Not Active
same,IC50,[2]; nci-h460,Not Active
COc1cc(O)cc2cc3oc(C)cc(=O)c3c(O)c12,inhibition (INH),[1],Not Active
same,IC50,[2]; nci-h460,Not Active
CCCc1cc(=O)c2c(OC)c(OC)c3cc(O)cc(OC)c3c2o1,inhibition (INH),[1],44%
same,IC50,[2]; read-out: IC50,16.6 µM
CCCc1cc(=O)c2c(O)c(OC)c3cc(O)cc(OC)c3c2o1,inhibition (INH),[1],27.5%
same,IC50,[2]; read-out: IC50,> 20 µM
COc1cc(O)cc2cc(O)c3c(=O)cc(C)oc3c12,inhibition (INH),[1],31%
same,IC50,[2]; read-out: IC50,12.8 µM
CCCc1cc(=O)c2c(O)cc3cc(O)cc(OC)c3c2o1 [COMAPARVIN],inhibition (INH),[1],54.3%
same,IC50,[2]; read-out: IC50,9 µM
